Reference: US20260174875A1 (Novo Nordisk A/S, priority 2023, published 2026)
Like-named read-outs stand apart in the source and are kept apart here. One block for each molecule: values may come before it. Numbered stars: 1 amine (or outer) side, 2 acyl side, 3 side chain; on linkers, the order of the positions; unused ones are H or OH. Square brackets hold non-standard residues; d marks the D form. Side chains are listed from the residue outwards. * marks the point of attachment. C20 diacid = O=C(O)CCCCCCCCCCCCCCCCCCC(=O)*; C18 diacid = O=C(O)CCCCCCCCCCCCCCCCC(=O)*; γGlu = O=C(O)[C@H](CCC(=O)[*:2])N[*:1]; Chem. 28 = not defined here; Chem. 29 = not defined here; AEEA = NCCOCCOCC(=O)O; Aib = CC(C)(N)C(=O)O

Key:
[1] = target: T1, human amylin receptor (hAMYR3) (Homo sapiens, UniProt O60896+P30988); assay: Amylin receptor assay, method A (CRE-luciferase reporter, BHK cells); type: cell-based
T1 construct: host or cells: BHK cells (Hollex-1 line expressing hCTR(a) and CRE-Luc), further transfected with human RAMP3

[2] = target: T2, human GIP receptor (hGIPR) (Homo sapiens, UniProt P48546); assay: GIP receptor assay, method A (CRE-luciferase reporter, BHK cells); type: cell-based
T2 construct: expressed in transfected cells
T2 sequence (P48546 22-466): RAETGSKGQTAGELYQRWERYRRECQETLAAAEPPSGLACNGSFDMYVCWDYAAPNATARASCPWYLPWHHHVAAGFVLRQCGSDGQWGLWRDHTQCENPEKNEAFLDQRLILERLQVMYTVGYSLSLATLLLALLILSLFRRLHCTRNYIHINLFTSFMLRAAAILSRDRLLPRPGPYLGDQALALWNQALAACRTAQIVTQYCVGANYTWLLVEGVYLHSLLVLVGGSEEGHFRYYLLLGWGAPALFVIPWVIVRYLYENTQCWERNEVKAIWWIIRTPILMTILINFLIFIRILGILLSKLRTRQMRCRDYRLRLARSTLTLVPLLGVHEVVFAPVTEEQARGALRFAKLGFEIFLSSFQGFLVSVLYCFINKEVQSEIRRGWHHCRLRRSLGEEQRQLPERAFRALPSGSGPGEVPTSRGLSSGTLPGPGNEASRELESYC
Summary of the method: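 BHK cells co-expressing hGIPR and a CRE-luciferase reporter, plated 21-23 h before assay, stimulated 3 h at 37 °C with compounds (7-point 10-fold titration, duplicates) in ovalbumin-containing DMEM buffer with or without 1% HSA final. Luminescence read; EC50 (pM) from four-parameter logistic fit with shared Hill slope.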

[3] = target: T3, human GLP-1 receptor (hGLP-1R) (Homo sapiens, UniProt P43220); assay: GLP-1 receptor assay, method A (CRE-luciferase reporter, BHK cells); type: cell-based
T3 construct: expressed in transfected cells
T3 sequence (P43220 24-463): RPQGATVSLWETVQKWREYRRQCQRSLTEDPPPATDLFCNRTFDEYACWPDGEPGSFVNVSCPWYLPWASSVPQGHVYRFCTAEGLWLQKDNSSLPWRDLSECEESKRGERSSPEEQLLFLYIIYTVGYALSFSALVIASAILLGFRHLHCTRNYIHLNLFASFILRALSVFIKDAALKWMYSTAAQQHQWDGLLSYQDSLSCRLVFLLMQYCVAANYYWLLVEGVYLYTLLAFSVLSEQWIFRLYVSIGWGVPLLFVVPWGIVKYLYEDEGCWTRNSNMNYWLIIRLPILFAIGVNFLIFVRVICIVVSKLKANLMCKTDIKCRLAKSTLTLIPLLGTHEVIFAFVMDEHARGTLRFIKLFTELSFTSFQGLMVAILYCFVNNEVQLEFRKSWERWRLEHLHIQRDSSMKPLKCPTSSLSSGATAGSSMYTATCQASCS
Summary of the method: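 In this CRE-luciferase reporter assay, the human receptor was expressed in BHK cells, and cAMP signalling was followed after a 3 h stimulation at 37° C. The buffer contained 1% (w/v) ovalbumin, and testing was done with and without 1% (w/v) human serum albumin.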

human GLP-1 receptor = human GLP-1 receptor (human, UniProt P43220 24-463); assay: cell-based or functional assay
[4] = target: T4, human amylin-3(a) receptor (human, UniProt P30988 25-474; O60896 24-148); assay: cell-based or functional assay
T4 sequence (looked up) 1: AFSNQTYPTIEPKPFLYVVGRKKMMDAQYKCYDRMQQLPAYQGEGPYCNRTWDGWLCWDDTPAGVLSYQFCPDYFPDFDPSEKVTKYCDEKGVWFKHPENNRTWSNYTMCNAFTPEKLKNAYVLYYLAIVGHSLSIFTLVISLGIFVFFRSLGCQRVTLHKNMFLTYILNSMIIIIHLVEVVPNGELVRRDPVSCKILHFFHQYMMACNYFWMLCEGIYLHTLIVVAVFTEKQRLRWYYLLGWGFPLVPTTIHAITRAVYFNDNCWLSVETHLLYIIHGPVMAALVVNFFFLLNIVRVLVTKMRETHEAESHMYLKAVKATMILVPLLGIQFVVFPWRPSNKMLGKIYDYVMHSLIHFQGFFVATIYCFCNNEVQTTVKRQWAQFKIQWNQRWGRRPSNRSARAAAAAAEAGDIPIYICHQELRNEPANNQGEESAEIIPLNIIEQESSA
T4 sequence (looked up) 2: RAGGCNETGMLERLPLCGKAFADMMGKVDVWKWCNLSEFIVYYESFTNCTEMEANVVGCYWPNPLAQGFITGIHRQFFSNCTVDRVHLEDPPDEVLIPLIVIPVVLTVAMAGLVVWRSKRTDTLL

human GIP receptor = target: T5, human GIP receptor (human, UniProt P48546 22-466); assay: cell-based or functional assay
T5 sequence (looked up): T2 sequence (P48546 22-466)

[5] = hAMYR3 Potency, 1% HSA, EC50, method A, in the presence of 1% HSA
[6] = method A, absence of HSA, read-out: hAMYR3 Potency, no HSA, EC50
[7] = hGIPR Potency, 1% HSA, EC50, method A, in the presence of 1% HSA
[8] = method A, absence of HSA, read-out: hGIPR Potency, no HSA, EC50
[9] = hGLP-1R Potency, 1% HSA, EC50, method A, in the presence of 1% HSA
[10] = method A, absence of HSA, read-out: hGLP-1R Potency, no HSA, EC50

Molecule: Y[Aib]EGTFTSDYSILLEEQAAREFIEWLLAGGPSSGAPPPSGGGEASHLSTAQTQRLSAELHK([AEEA-AEEA-γGlu-C18 diacid])LATLPRTETGSGSP-NH2 [Compound 49]
- EC50 [1, 5]: 0.106 nM
- EC50 [1, 6]: 0.00185 nM
- EC50 [2, 7]: 0.0167 nM
- EC50 [2, 8]: 0.00436 nM
- EC50 [3, 9]: 0.11 nM
- EC50 [3, 10]: 0.0333 nM

Molecule: Y[Aib]EGTFTSDYSILLEEQAAREFIEWLLAGGPSSGEASHLSTAQTQRLSAELHRLATLPK([AEEA-AEEA-γGlu-C18 diacid])TETGSGSP-NH2 [Compound 81]
- EC50 [1, 5]: 0.188 nM
- EC50 [1, 6]: 0.00407 nM
- EC50 [2, 7]: 0.0158 nM
- EC50 [2, 8]: 0.00331 nM
- EC50 [3, 9]: 0.0514 nM
- EC50 [3, 10]: 0.016 nM

Molecule: Y[Aib]EGTFTSDYSILLEEQAAREFIEWLLAGGPSSK([γGlu-C20 diacid])APPPSGGGEASELSTAALGRLSAELHRLATLPRTETGSGSP-NH2 [Compound 42]
- EC50 [1, 6]: 0.00342 nM
- EC50 [2, 8]: 0.00801 nM
- EC50 [3, 10]: 0.0613 nM

B4: Compound 44 (peptide)
peptide: H[Aib]HGTFTSDYSILLEEQAAREFIEWLLAGGPSK(Chem. 28)GALAQTLGTNEASELSTAALGRLSAELHRLATLPRTETGSGSP-NH2
modifications: reading uncertain
- hGLP-1R Potency, no HSA, EC50 [pM] (human GLP-1 receptor): 3.68 pM
- hAMYR3 Potency, no HSA, EC50 [pM] [4]: 3.8 pM
- hGIPR Potency, no HSA, EC50 [pM] (human GIP receptor): 6.3 pM

B5: Compound 46 (peptide)
peptide: H[Aib]HGTFTSDYSILLEEQAAREFIEWLLAGGPSK(Chem. 28)GAGQAPGQAPGASHLSTAALGRLSAELHRLATLPRTETGSGSP-NH2
modifications: reading uncertain
- hGLP-1R Potency, no HSA, EC50 [pM] (human GLP-1 receptor): 4.59 pM
- hAMYR3 Potency, no HSA, EC50 [pM] [4]: 4.41 pM
- hGIPR Potency, no HSA, EC50 [pM] (human GIP receptor): 5.42 pM

B6: Compound 19 (peptide)
peptide: Y[Aib]EGTFTSDYSILLEEQAAREFIEWLLAGGPSK(Chem. 28)GEASELSTAALGRLSAELHRLATLPRTETGSGSP-NH2
modifications: reading uncertain
- hGLP-1R Potency, no HSA, EC50 [pM] (human GLP-1 receptor): 57.9 pM
- hAMYR3 Potency, no HSA, EC50 [pM] [4]: 4.24 pM
- hGIPR Potency, no HSA, EC50 [pM] (human GIP receptor): 9.44 pM

Continued, values first:

- EC50 [1, 6]: 0.00269 nM
- EC50 [2, 8]: 0.00473 nM
- EC50 [3, 10]: 0.0478 nM
Molecule: Y[Aib]EGTFTSDYSILLEEQAAREFIEWLLAGGPSSK([AEEA-AEEA-γGlu-C18 diacid])APPPSGGGEASELSTAALGRLSAELHRLATLPRTETGSGSP-NH2 [Compound 31]

- hGLP-1R Potency, no HSA, EC50 [pM] (human GLP-1 receptor): 52.8 pM
- hAMYR3 Potency, no HSA, EC50 [pM] [4]: 3.93 pM
- hGIPR Potency, no HSA, EC50 [pM] (human GIP receptor): 7.25 pM
B1: Compound 18 (peptide)
peptide: Y[Aib]EGTFTSDYSILLEEQAAREFIEWLLAGGPSK(Chem. 29)GEASELSTAALGRLSAELHRLATLPRTETGSGSP-NH2
modifications: reading uncertain

- hGLP-1R Potency, no HSA, EC50 [pM] (human GLP-1 receptor): 23.3 pM
- hAMYR3 Potency, no HSA, EC50 [pM] [4]: 4.21 pM
- hGIPR Potency, no HSA, EC50 [pM] (human GIP receptor): 1.97 pM
B2: Compound 35 (peptide)
peptide: Y[Aib]EGTFTSDYSILLEEQAAREFIEWLLAGGPSK(Chem. 28)GEASHLSTAQTARLSAELHELATLPRTETGSGSP-NH2
modifications: reading uncertain

- hGLP-1R Potency, no HSA, EC50 [pM] (human GLP-1 receptor): 37.9 pM
- hAMYR3 Potency, no HSA, EC50 [pM] [4]: 2.26 pM
- hGIPR Potency, no HSA, EC50 [pM] (human GIP receptor): 2.4 pM
B3: Compound 13 (peptide)
peptide: Y[Aib]EGTFTSDYSILLEEQAAREFIEWLLAGGPSK([AEEA-AEEA-γGlu-C18 diacid])GAPPPSGGGGASELSTAALGRLSAELHRLATLPRTETGSGSP-NH2
